In assay [1] the test system is CYPRO (Cyperus rotundus, purple nutsedge). The assay can be described thus: In-water applied weed control, transplanted paddy rice, greenhouse (Example II). It counts as in vivo, Cyperus rotundus L. On the procedure: Weed seeds or nutlets of the desired test plant species were planted in puddled soil (mud) prepared by mixing a shredded, non-sterilized mineral soil (50.5 percent silt, 25.5 percent clay, and 24 percent sand, with a pH of about 7.6 and an organic matter content of about 2.9 percent) and water at a 1:1 volumetric ratio. The prepared mud was dispensed in 365 mL aliquots into 16-ounce (oz.) non-perforated plastic pots with a surface area of 86.59 square centimeters (cm^2) leaving a headspace of 3 centimeters (cm) in each pot. Rice seeds were planted in Sun Gro MetroMix® 306 planting mixture, which typically has a pH of 6.0 to 6.8 and an organic matter content of about 30 percent, in plastic plug trays. Seedlings at the second or third leaf stage of growth were transplanted into 860 mL of mud contained in 32-oz. non-perforated plastic pots with a surface area of 86.59 cm^2 4 days prior to herbicide application. The paddy was created by filling the headspace of the pots with 2.5 to 3 cm of water. When required to ensure good germination and healthy plants, a fungicide treatment and/or other chemical or physical treatment was applied. The plants were grown for 4-22 days in a greenhouse with an approximate 14 h photoperiod which was maintained at about 29′C during the day and 26° C. during the night. Nutrients were added as Osmocote® (19:6:12, N:P:K+minor nutrients) at 2 g per 16-oz. pot and 4 g per 32-oz. pot. Water was added on a regular basis to maintain the paddy flood, and supplemental lighting was provided with overhead metal halide 1000-Watt lamps as necessary. The plants were employed for testing when they reached the first through fourth true leaf stage.
Treatments consisted of the acid or esters of 4-amino-3-chloro-5-fluoro-6-(4-chloro-2-fluoro-3-methoxy-phenyl)pyridine-2-carboxylic acid (compound A) each formulated as an SC and various herbicidal components alone and in combination. Forms of compound A were applied on an acid equivalent basis.
Other herbicidal components were applied on an active ingredient basis and included acetolactate synthase (ALS)-inhibiting herbicides (sulfonylurea chemical class), azimsulfuron formulated as Gulliver®, bensulfuron-methyl formulated as Londax® 60DF, cyclosulfamuron (technical grade materail), ethoxysulfuron formulated as Sunrice® 15 WDG, flucetosulfuron formulated as Sukedachi® 1KG G, imazosulfuron formulated as Brazzos®, metsulfuron-methyl formulated as Lorate®, nicosulfuron formulated as Accent®, orthosulfamuron formulated as Strada® WG, propyrisulfuron formulated as Zeta One®, and rimsulfuron formulated as Matrix® WG.
Treatment requirements for each compound or herbicidal component were calculated based upon the rates being tested, the concentration of active ingredient or acid equivalent in the formulation, an application volume of 2 mL per component per pot, and an application area of 86.59 cm^2 per pot.
For formulated compounds, a measured amount was placed in an individual 100 or 200 mL glass vial and was dissolved in a volume of 1.25% (v/v) Agri-Dex® crop oil concentrate to obtain application solutions.
For technical grade compounds, a weighed amount was placed in an individual 100 to 200 mL glass vial and was dissolved in a volume of acetone to obtain concentrated stock solutions. […] The concentrated stock solutions obtained were diluted with an equivalent volume of an aqueous mixture containing 2.5% (v/v) crop oil concentrate so that the final application solutions contained 1.25% (v/v) crop oil concentrate.
Applications were made by injecting with a pipetter appropriate amounts of the application solutions, individually and sequentially, into the aqueous layer of the paddy. Control plants were treated in the same manner with the solvent blank. Applications were made so that all treated plant material received the same concentrations of acetone and crop oil concentrate. […]

Assay [2] concerns CYPES (Cyperus esculentus, yellow nutsedge). The assay can be described thus: Postemergence foliar-applied weed control, direct seeded rice, greenhouse (Example I). It counts as in vivo, Cyperus esculentus L. The note with it: 20 DAA. An excerpt: Seeds or nutlets of the desired test plant species were planted in a soil matrix prepared by mixing a loam or sandy loam soil (e.g., 28.6 percent silt, 18.8 percent clay, and 52.6 percent sand, with a pH of about 5.8 and an organic matter content of about 1.8 percent) and calcareous grit in an 80 to 20 ratio. The soil matrix was contained in plastic pots with a volume of 1 quart and a surface area of 83.6 square centimeters (cm^2). When required to ensure good germination and healthy plants, a fungicide treatment and/or other chemical or physical treatment was applied. The plants were grown for 8-22 days in a greenhouse with an approximate 14 h photoperiod which was maintained at about 29° C. during the day and 26° C. during the night. Nutrients (Peters Excel® 15-5-15 5-Ca 2-Mg and iron chelate) were applied in the irrigation solution as needed and water was added on a regular basis. Supplemental lighting was provided with overhead metal halide 1000-Watt lamps as necessary. The plants were employed for testing when they reached the first through fourth true leaf stage.
Treatments consisted of the acid or esters of 4-amino-3-chloro-5-fluoro-6-(4-chloro-2-fluoro-3-methoxy-phenyl)pyridine-2-carboxylic acid (Compound A), each formulated as an SC, and various herbicidal components alone and in combination. Forms of compound A were applied on an acid equivalent basis.
Other herbicidal components were applied on an active ingredient basis and included acetolactate synthase (ALS)-inhibiting herbicides (sulfonylurea chemical class) azimsulfuron formulated as Gulliver®, bensulfuron-methyl formulated as Londax® 60DF, cyclosulfamuron (technical material), ethoxysulfuron formulated as Sunrice® 15 WDG, flazasulfuron formulated as Katana®, flucetosulfuron formulated as Sukedachi® 1KG G, foramsulfuron formulated as Option®, imazosulfuron formulated as Brazzos® WG, iodosulfuron-methyl-sodium formulated as Hussar®, metsulfuron-methyl formulated as Lorate®, nicosulfuron formulated as Accent®, orthosulfamuron formulated as Strada® WG, primisulfuron-methyl (technical material), propyrisulfuron formulated as Zeta One®, rimsulfuron formulated as Matrix® WG, sulfometuron-methyl formulated as Oust®, and trifloxysulfuron-sodium formulated as Monument® 75WG.
Treatment requirements were calculated based upon the rates being tested, the concentration of active ingredient or acid equivalent in the formulation, and a 12 mL application volume at a rate of 187 L/ha.
For treatments comprised of formulated compounds, measured amounts of compounds were placed individually in 25 mL glass vials and diluted in a volume of 1.25% (v/v) Agri-Dex® crop oil concentrated to obtain 12× stock solutions. […] Application solutions were prepared by adding an appropriate amount of each stock solution (e.g., 1 mL) and diluted to the appropriate final concentrations with the addition of 10 mL of an aqueous mixture of 1.25% (v/v) crop oil concentrate so that the final spray solutions contained 1.25+/−0.05% (v/v) Agrcrop oil concentrate.
For treatments comprised of formulated and technical compounds, weighed amounts of the technical materials were placed individually in 25 mL glass vials and dissolved in a volume of 97:3 v/v acetone/DMSO to obtain 12× stock solutions, and measured amounts of the formulated compounds were placed individually in 25 mL glass vials and diluted in a volume of 1.25% (v/v) crop oil concentrate to obtain 12× stock solutions. […] Application solutions were prepared by adding an appropriate amount of each stock solution (e.g., 1 mL) and diluted to the appropriate final concentrations with the addition of an appropriate amount of an aqueous mixture of 1.5% (v/v) crop oil concentrate so that the final spray solutions contained 1.25% (v/v) crop oil concentrate. […]

The structures appear in SMILES notation. “And” between values parts separate entries of the source, which are not always exact repeats. Equal values may be shown once.

`COc1c(Cl)ccc(-c2nc(C(=O)O)c(Cl)c(N)c2F)c1F` [Compound A Acid, 4-amino-3-chloro-5-fluoro-6-(4-chloro-2-fluoro-3-methoxy-phenyl)pyridine-2-carboxylic acid]: the “Visual Weed Control (%) - 20 DAA CYPRO Obs” value in assay [1] (Table 43, 10.6 gae/ha alone) is 10%; in assay [1] (Table 43, 21.2 gae/ha alone), 20%; in assay [1] (Table 49, 10.6 gae/ha alone), 10%; in assay [1] (Table 49, 21.2 gae/ha alone), 20%; in assay [1] (Table 49, 42.4 gae/ha alone), 95%. The “Visual Weed Control (%) Obs” value in assay [2] (4.38 gae/ha) came out at 30%; in assay [2] (5.3 gae/ha), 0%; in assay [2] (8.75 gae/ha), 70%.
On to `COc1c(Cl)ccc(-c2nc(C(=O)OCc3ccccc3)c(Cl)c(N)c2F)c1F` [Compound A Benzyl Ester], for which the “Visual Weed Control (%) - 20 DAA CYPRO Obs” value turned out to be 50% in assay [1] (Table 50, 4.38 gae/ha alone); 0% in assay [1] (Table 50, 8.75 gae/ha alone); 90% in assay [1] (Table 50, 17.5 gae/ha alone). For the same compound, the “Visual Weed Control (%) Obs” value in assay [2] (4.38 gae/ha) is 70% and 85%; in assay [2] (8.75 gae/ha), 80% and 90%; in assay [2] (17.5 gae/ha), 90%.

The values are drawn from patent publication US8871681B2, “Herbicidal compositions comprising 4-amino-3-chloro-5-fluoro-6-(4-chloro-2-fluoro-3-methoxyphenyl) pyridine-2-carboxylic acid or a derivative thereof and certain sulfonylureas” (Dow AgroSciences LLC, priority 2012, dated 2014).
